One may read the melting point as the temperature of the solid-liquid transition.

Turning to `COc1cc2c(-c3cc4c(Cl)ccnc4[nH]3)cn(CCN3CCN(C)CC3)c2cc1OC` [Example 101, 4-chloro-2-{5,6-dimethoxy-1-[2-(4-methylpiperazin-1-yl)ethyl]-1H-indol-3-yl}-1H-pyrrolo[2,3-b]pyridine], the melting point worked out at 192 °C.

Compound `COc1cc2c(-c3cc4c(C#N)ccnc4[nH]3)cn(CCN3CCN(C)CC3)c2cc1OC` [Example 102, 2-{5,6-dimethoxy-1-[2-(4-methylpiperazin-1-yl)ethyl]-1H-indol-3-yl}-1H-pyrrolo[2,3-b]pyridine-4-carbonitrile] yielded a melting point of 196 °C.

Take `COc1cc2c(-c3cc4cc(F)cnc4[nH]3)cn(CCN3CCOCC3)c2cc1OC` [Example 105, 2-[5,6-dimethoxy-1-(2-morpholin-4-ylethyl)-1H-indol-3-yl]-5-fluoro-1H-pyrrolo[2,3-b]pyridine]: the melting point lay within 205 to 210 °C.

Compound `COc1cc2c(-c3cc4c(Cl)ccnc4[nH]3)cn(CCN3CCOCC3)c2cc1OC` [Example 99, 4-chloro-2-[5,6-dimethoxy-1-(2-morpholin-4-ylethyl)-1H-indol-3-yl]-1H-pyrrolo[2,3-b]pyridine] displayed a melting point of 240 °C.

Turning to `COc1cc2c(-c3cc4c(Cl)ccnc4[nH]3)cn(CCN3CCC(CCO)CC3)c2cc1OC` [Example 100, 2-(1-{2-[3-(4-chloro-1H-pyrrolo[2,3-b]pyridin-2-yl)-5,6-dimethoxyindol-1-yl]ethyl}piperidin-4-yl)ethanol], the melting point was 200 °C.

The compound `COc1cc(OC)c2c(c1)c(-c1cc3cccnc3[nH]1)cn2C` [Example 175, 2-(5,7-Dimethoxy-1-methyl-1H-indol-3-yl)-1H-pyrrolo[2,3-b]pyridine] came in with a melting point of 220 °C.

Regarding `COc1cc2c(-c3cc4cc(F)cnc4[nH]3)cn(CCN3CCN(C)CC3)c2cc1OC` [Example 106, 2-{5,6-Dimethoxy-1-[2-(4-methylpiperazin-1-yl)ethyl]-1H-indol-3-yl}-5-fluoro-1H-pyrrolo[2,3-b]pyridine], the melting point is 188 °C.

As to `COc1cc2c(-c3cc4cc(F)cnc4[nH]3)cn(C)c2cc1OC` [Example 104, 2-(5,6-dimethoxy-1-methyl-1H-indol-3-yl)-5-fluoro-1H-pyrrolo[2,3-b]pyridine], the melting point worked out at 283 °C.

`COc1cc2c(-c3cc4cc(Cl)cnc4[nH]3)cn(C)c2cc1OC` [Example 103, 5-chloro-2-(5,6-dimethoxy-1-methyl-1H-indol-3-yl)-1H-pyrrolo[2,3-b]pyridine] gave a melting point of 192 °C.

These data come from US7968566B2, “Pyrrolo(2,3-b) pyridine derivatives, the preparation and the pharmaceutical use thereof in the form of kinase inhibitors” (Aventis Pharma S.A., priority 2004, dated 2011).
